Measurements published in patent EP4596574A1, “GLP-1/GCG/GIP TRIPLE-RECEPTOR AGONIST AND USE THEREOF” (Sunshine Lake Pharma Co., Ltd., priority 2022, dated 2024).
Marks after values point to notes of the source that are not given here.

What was measured:
[1] = biological target: T1, GLP-1R (Homo sapiens, UniProt P43220); assay: In vitro cell activity, cAMP production in HEK293 cells expressing GLP-1R; assay type: cell-based
T1 construct: expressed in transfected cells; host or cells: HEK293 (HEK293-GLP-1R)
T1 sequence (P43220 24-463, species assumed): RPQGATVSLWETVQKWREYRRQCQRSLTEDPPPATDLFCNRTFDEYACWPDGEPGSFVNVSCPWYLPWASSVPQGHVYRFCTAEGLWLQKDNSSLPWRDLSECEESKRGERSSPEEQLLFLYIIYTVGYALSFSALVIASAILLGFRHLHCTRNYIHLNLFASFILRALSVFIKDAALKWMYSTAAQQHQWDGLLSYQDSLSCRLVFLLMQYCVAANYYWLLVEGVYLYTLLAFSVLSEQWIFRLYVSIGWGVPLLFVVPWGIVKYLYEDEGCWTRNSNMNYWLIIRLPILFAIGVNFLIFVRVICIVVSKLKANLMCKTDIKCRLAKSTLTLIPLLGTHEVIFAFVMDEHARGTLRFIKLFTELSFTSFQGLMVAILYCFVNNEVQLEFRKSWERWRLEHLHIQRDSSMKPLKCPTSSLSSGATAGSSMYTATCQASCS
Summary of the method: (§1)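 HEK293 transfectants, 4×10^5 cells/mL, 384-well. Detection: cAMP-d2 + anti-cAMP cryptate 1:1, RT 1 h dark or 4 °C o/n. Read 665/620 nm; 4-parameter nonlinear fit → EC50.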

[2] = biological target: T2, GCGR (Homo sapiens, UniProt P47871); assay: In vitro cell activity, cAMP production in HEK293 cells expressing GCGR; assay type: cell-based
T2 construct: expressed in transfected cells; host or cells: HEK293 (HEK293-GCGR)
T2 sequence (P47871 26-477, species assumed): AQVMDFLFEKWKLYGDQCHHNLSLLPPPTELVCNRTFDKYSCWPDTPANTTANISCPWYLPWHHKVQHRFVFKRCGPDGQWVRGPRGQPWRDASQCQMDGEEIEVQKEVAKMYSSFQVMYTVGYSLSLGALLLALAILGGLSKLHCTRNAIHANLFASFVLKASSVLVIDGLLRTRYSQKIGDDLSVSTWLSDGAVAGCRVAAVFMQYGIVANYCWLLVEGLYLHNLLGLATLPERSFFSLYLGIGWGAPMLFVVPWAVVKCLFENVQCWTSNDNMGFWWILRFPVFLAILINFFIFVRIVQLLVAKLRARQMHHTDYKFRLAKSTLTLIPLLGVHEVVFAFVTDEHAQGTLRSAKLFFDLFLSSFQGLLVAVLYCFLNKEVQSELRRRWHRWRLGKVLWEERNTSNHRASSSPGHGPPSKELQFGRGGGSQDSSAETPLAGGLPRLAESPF
Summary of the method: as §1

[3] = biological target: T3, GIPR (Homo sapiens, UniProt P48546); assay: In vitro cell activity, cAMP production in HEK293 cells expressing GIPR; assay type: cell-based
T3 construct: expressed in transfected cells; host or cells: HEK293 (HEK293-GIPR)
T3 sequence (P48546 22-466): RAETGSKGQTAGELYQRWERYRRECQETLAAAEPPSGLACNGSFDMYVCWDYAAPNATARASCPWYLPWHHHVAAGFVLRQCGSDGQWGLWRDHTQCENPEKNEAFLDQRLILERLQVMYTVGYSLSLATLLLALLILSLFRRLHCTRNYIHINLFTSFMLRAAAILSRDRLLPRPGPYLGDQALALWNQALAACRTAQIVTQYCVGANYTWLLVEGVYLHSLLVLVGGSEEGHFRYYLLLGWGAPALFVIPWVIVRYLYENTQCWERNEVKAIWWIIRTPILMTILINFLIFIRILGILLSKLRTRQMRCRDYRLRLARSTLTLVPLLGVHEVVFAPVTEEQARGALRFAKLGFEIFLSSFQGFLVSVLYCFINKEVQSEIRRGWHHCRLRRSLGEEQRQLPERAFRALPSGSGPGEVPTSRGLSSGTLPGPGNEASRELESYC
Summary of the method: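 HEK293 cells expressing human GIPR, thawed and diluted to 4×10^5 cells/mL, are stimulated with test compound. cAMP is measured by HTRF competition between cAMP-d2 and anti-cAMP cryptate. EC50 comes from a four-parameter nonlinear fit of signal ratio against concentration.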

[4] = Glucose tolerance assessment in normal C57BL/6 mice (Example 5); assay type: in vivo
Experimental: Twelve hours after the single administration, the animals were fasted for 12 hours and had free access to water. Blood was collected from the tail vein to determine the basal blood glucose level of each group of animals, and then 2 g/kg glucose solution was injected intraperitoneally. Blood glucose was tested at 15, 30, 60, and 90 min after glucose administration. The blood glucose concentration-time curve was drawn according to the blood glucose values measured at different time points, and the AUC0~90min of each dose group was calculated as shown in Table 5 and Figure 2. Table 5: Effects of single administration of HEC-PT86, HEC-PT96, HEC-PT112, HEC-PT113, HEC-PT114, and HEC-PT119 on glucose tolerance in normal C57 mice 24 h after administration

[5] = Long-term repeated administration in diet-induced obese C57BL/6 mice (DIO); assay type: in vivo, C57/BL6 mice
Source text: Experimental methods: C57/BL6 mice were randomly divided into a normal group (NFD) and a model group (HFD) at the fifth week of age. The normal group was fed with ordinary maintenance feed, while the other groups were fed with high-fat feed D12492. The body weight and food intake of mice were monitored every 3 weeks. After 16 weeks of feeding, the body weights of mice in the model group and the normal group were (49.0±2.3) g and (31.0±2.0) g, respectively, and the difference between the two groups was statistically significant. […] Body weight and food intake were measured before each administration. After 3 weeks of administration, an intraperitoneal glucose tolerance test was performed. The mice were slaughtered and samples were collected 72 h after the last administration. The liver weight was recorded, and the liver pathological conditions and blood biochemical indexes of each group were tested.

[6] = 10 nmol/kg s.c. once every 3 days, D7
[7] = 10 nmol/kg s.c. once every 3 days, D10
[8] = 10 nmol/kg s.c. once every 3 days, D13
[9] = 10 nmol/kg s.c. once every 3 days, D16
[10] = 10 nmol/kg s.c. once every 3 days, D19
[11] = 10 nmol/kg s.c. once every 3 days, D22
[12] = 10 nmol/kg s.c. once every 3 days, D25
[13] = 10 nmol/kg s.c. once every 3 days, D28
[14] = after 4 weeks of administration, same dose
[15] = long-term administration 10 nmol/kg, 72 h after the last administration
[16] = long-term administration 10 nmol/kg, blood biochemical index

Which results are given for `CC[C@H](C)[C@H](NC(=O)[C@H](Cc1ccccc1)NC(=O)[C@H](C)NC(=O)C(C)(C)NC(=O)[C@H](CCC(N)=O)NC(=O)[C@H](CCCNC(=N)N)NC(=O)[C@H](CCCCNC(=O)COCCOCCNC(=O)CC[C@H](NC(=O)CCCCCCCCCCCCCCCCC(=O)O)C(=O)O)NC(=O)[C@H](CCC(=O)O)NC(=O)[C@H](CC(=O)O)NC(=O)[C@H](CC(C)C)NC(=O)[C@H](CC(C)C)NC(=O)[C@@H](NC(=O)[C@H](CO)NC(=O)[C@H](Cc1ccc(O)cc1)NC(=O)[C@H](CC(=O)O)NC(=O)[C@H](CO)NC(=O)[C@@H](NC(=O)[C@](C)(Cc1ccccc1F)NC(=O)[C@@H](NC(=O)CNC(=O)[C@H](CCC(N)=O)NC(=O)C(C)(C)NC(=O)[C@@H](N)Cc1ccc(O)cc1)[C@@H](C)O)[C@@H](C)O)[C@@H](C)CC)C(=O)N[C@@H](CCC(=O)O)C(=O)N[C@@H](Cc1ccc(O)cc1)C(=O)N[C@@H](CC(C)C)C(=O)N[C@@H](CC(C)C)C(=O)N[C@@H](C)C(=O)NCC(=O)NCC(=O)N1CCC[C@H]1C(=O)N[C@@H](CO)C(=O)N[C@@H](CO)C(=O)NCC(=O)N[C@@H](C)C(=O)N1CCC[C@H]1C(=O)N1CCC[C@H]1C(=O)N1CCC[C@H]1C(=O)N[C@@H](CO)C(N)=O` [HEC-PT112]?
EC50 [1]: 0.183 nM; EC50 [2]: 0.871 nM; EC50 [3]: 0.0534 nM; Blood glucose level (mM) 15 min ([4]; 3 nmol/kg s.c. single dose, 24 h after administration, 15 min after 2 g/kg glucose i.p.): 11.7 ± 2.6 mM; Blood glucose level (mM) 30 min ([4]; 3 nmol/kg s.c. single dose, 24 h after administration, 30 min after 2 g/kg glucose i.p.): 8.6 ± 1.9 mM; Blood glucose level (mM) 60 min ([4]; 3 nmol/kg s.c. single dose, 24 h after administration, 60 min after 2 g/kg glucose i.p.): 7.3 ± 0.7 mM; Blood glucose level (mM) 90 min ([4]; 3 nmol/kg s.c. single dose, 24 h after administration, 90 min after 2 g/kg glucose i.p.): 6.7 ± 0.6 mM; Blood glucose level (mM) 0 min ([4]; 3 nmol/kg s.c. single dose, 24 h after administration, basal before 2 g/kg glucose i.p.): 4.9 ± 1.3 mM; improvement of glucose tolerance compared with LY3298176 ([4]; 24 hours after a single administration, 3 nmol/kg): improved glucose tolerance in mice better than the positive control LY3298176; AUC0-90 min ([4]; blood glucose AUC, 3 nmol/kg s.c. single dose, 24 h after administration, 2 g/kg glucose i.p.): 726.2±82.4^a; Cumulative food intake (g/pcs) D7 [5, 6]: 5.6 g/pcs; Weight gain rate (%) D7 [5, 6]: -21.3±4.0%; Cumulative food intake (g/pcs) D10 [5, 7]: 7.8 g/pcs; Weight gain rate (%) D10 [5, 7]: -28.6±7.0%; Cumulative food intake (g/each) D13 [5, 8]: 10.6 g/each; Weight gain rate (%) D13 [5, 8]: -32.4±7.7%; Cumulative food intake (g/each) D16 [5, 9]: 15.5 g/each; Weight gain rate (%) D16 [5, 9]: -34.0±7.1%; Cumulative food intake (g/each) D19 [5, 10]: 21.0 g/each; Weight gain rate (%) D19 [5, 10]: -34.5±5.7%; Cumulative food intake (g/each) D22 [5, 11]: 26.6 g/each; Weight gain rate (%) D22 [5, 11]: -35.6±5.6%; Cumulative food intake (g/each) D25 [5, 12]: 32.3 g/each; Weight gain rate (%) D25 [5, 12]: -36.4±5.1%; Cumulative food intake (g/each) D28 [5, 13]: 39.1 g/each; Weight gain rate (%) D28 [5, 13]: -36.2±4.3%; Cumulative food intake (g/each) D30 ([5]; 10 nmol/kg s.c. once every 3 days, D30): 43.0^a g/each; Weight gain rate (%) D31 ([5]; 10 nmol/kg s.c. once every 3 days, D31): -35.6±4.3^a %; Cumulative food intake (g/pcs) D0 ([5]; 10 nmol/kg s.c., D0): 2.3 g/pcs; Weight gain rate (%) D0 ([5]; 10 nmol/kg s.c., D0): 0.0±0.0%; Cumulative food intake (g/pcs) D1 ([5]; 10 nmol/kg s.c., D1): 2.5 g/pcs; Weight gain rate (%) D1 ([5]; 10 nmol/kg s.c., D1): -5.4±0.9%; Cumulative food intake (g/pcs) D2 ([5]; 10 nmol/kg s.c., D2): 2.9 g/pcs; Weight gain rate (%) D2 ([5]; 10 nmol/kg s.c., D2): -8.8±0.8%; Cumulative food intake (g/pcs) D3 ([5]; 10 nmol/kg s.c., D3): 3.5 g/pcs; Weight gain rate (%) D3 ([5]; 10 nmol/kg s.c., D3): -10.6±1.0%; Cumulative food intake (g/pcs) D4 ([5]; 10 nmol/kg s.c., D4): 4.1 g/pcs; Weight gain rate (%) D4 ([5]; 10 nmol/kg s.c., D4): -12.6±1.7%; liver function and blood lipids of DIO mice ([5]; after 4 weeks of administration): significantly improved the liver function and blood lipids; food intake inhibition effect compared with LY3298176 [5, 14]: certain advantages in inhibiting food intake; weight loss effect compared with LY3298176 [5, 14]: significantly better than that of LY3298176; Liver index/% [5, 15]: 3.0±0.0^a %; Liver/g [5, 15]: 0.9±0.1^a g; Weight/g [5, 15]: 29.7±2.5^a g; ALT (U/L) [5, 16]: 25.9±6.6^a U/L; AST (U/L) [5, 16]: 115.3±16.2^a U/L; CHOL (mmol/L) [5, 16]: 3.1±0.5^a mmol/L; TRIGL (mmol/L) [5, 16]: 0.6±0.1^a mmol/L
